# Measured values: ChEMBL document CHEMBL3600353, “In Vitro Activity of Epigallocatechin Gallate and Quercetin Alone and in Combination versus Clinical Isolates of Methicillin-Resistant Staphylococcus aureus” (2015)
# Calls of active or inactive are those of the source. No cut-off for these calls is given here.
# Key:
# Staphylococcus aureus [1] = experiment: Antibacterial activity against methicillin-sensitive Staphylococcus aureus ATCC 25923 at 0.56 mM after 4 hrs by time kill assay; type: functional, organism-based
# Staphylococcus aureus [2] = experiment: Antibacterial activity against methicillin-resistant Staphylococcus aureus isolate 3 after 24 hrs by checkerboard assay in presence of quercetin; type: functional
# Staphylococcus aureus [3] = experiment: Antibacterial activity against vancomycin-intermediate resistant Staphylococcus aureus Mu50 after 24 hrs by time kill assay; type: functional, organism-based
# Staphylococcus aureus [4] = experiment: Antibacterial activity against Staphylococcus aureus ATCC 25923 assessed as reduction of epigallocatechin gallate MIC after 24 hrs by checkerboard assay in presence of quercetin; type: functional; conditions: ATCC 25923, 24 h
# Staphylococcus aureus [5] = experiment: Antibacterial activity against methicillin-resistant Staphylococcus aureus isolate 3 assessed as reduction of epigallocatechin gallate MIC after 24 hrs by checkerboard assay in presence of quercetin; type: functional; conditions: isolate 3, 24 h
# Staphylococcus aureus [6] = experiment: Antibacterial activity against methicillin-sensitive Staphylococcus aureus ATCC 25923 at 0.28 mM after 24 hrs by time kill assay in presence of 0.2 mM of quercetin; type: functional, organism-based
# Staphylococcus aureus [7] = experiment: Antibacterial activity against methicillin-resistant Staphylococcus aureus isolate 1 assessed as reduction of epigallocatechin gallate MIC after 24 hrs by checkerboard assay in presence of quercetin; type: functional; conditions: isolate 1, 24 h
# Staphylococcus aureus [8] = experiment: Antibacterial activity against methicillin-resistant Staphylococcus aureus isolate 1 after 24 hrs by checkerboard assay in presence of quercetin; type: functional
# Staphylococcus aureus [9] = experiment: Antibacterial activity against methicillin-resistant Staphylococcus aureus isolate 3 by disk diffusion assay; type: functional
# Staphylococcus aureus [10] = experiment: Antibacterial activity against vancomycin-intermediate resistant Staphylococcus aureus Mu50 at 0.56 mM after 24 hrs by time kill assay; type: functional, organism-based
# Staphylococcus aureus [11] = experiment: Antibacterial activity against methicillin-resistant Staphylococcus aureus isolate 6 after 24 hrs by checkerboard assay; type: functional; conditions: isolate 6, 24 h
# Staphylococcus aureus [12] = experiment: Antibacterial activity against methicillin-resistant Staphylococcus aureus isolate 7 after 24 hrs by checkerboard assay; type: functional; conditions: isolate 7, 24 h
# Staphylococcus aureus [13] = experiment: Antibacterial activity against methicillin-resistant Staphylococcus aureus NCTC 12493 at 0.28 mM after 4 hrs by time kill assay; type: functional, organism-based
# Staphylococcus aureus [14] = experiment: Antibacterial activity against methicillin-resistant Staphylococcus aureus isolate 3 after 24 hrs by checkerboard assay; type: functional; conditions: isolate 3, 24 h
# Staphylococcus aureus [15] = experiment: Antibacterial activity against methicillin-sensitive Staphylococcus aureus ATCC 25923 at 0.28 mM after 24 hrs by time kill assay in presence of 0.42 mM of quercetin; type: functional, organism-based
# Staphylococcus aureus [16] = experiment: Antibacterial activity against methicillin-sensitive Staphylococcus aureus ATCC 25923 at 0.56 mM after 24 hrs by time kill assay; type: functional, organism-based
# Staphylococcus aureus [17] = experiment: Antibacterial activity against vancomycin-intermediate resistant Staphylococcus aureus Mu50 at 0.56 mM after 4 hrs by time kill assay; type: functional, organism-based
# Staphylococcus aureus [18] = experiment: Antibacterial activity against methicillin-resistant Staphylococcus aureus NCTC 12493 after 24 hrs by checkerboard assay; type: functional; conditions: NCTC 12493, 24 h
# Staphylococcus aureus [19] = experiment: Antibacterial activity against methicillin-resistant Staphylococcus aureus isolate 5 after 24 hrs by checkerboard assay in presence of quercetin; type: functional
# Staphylococcus aureus [20] = experiment: Antibacterial activity against methicillin-resistant Staphylococcus aureus isolate 9 by disk diffusion assay; type: functional
# Staphylococcus aureus [21] = experiment: Antibacterial activity against methicillin-resistant Staphylococcus aureus isolate 2 by disk diffusion assay; type: functional
# Staphylococcus aureus [22] = experiment: Antibacterial activity against methicillin-sensitive Staphylococcus aureus ATCC 25923 after 24 hrs by time kill assay; type: functional, organism-based
# Staphylococcus aureus [23] = experiment: Antibacterial activity against methicillin-sensitive Staphylococcus aureus ATCC 25923 at 0.56 mM after 24 hrs by time kill assay in presence of 0.85 mM of quercetin; type: functional, organism-based
# Staphylococcus aureus [24] = experiment: Antibacterial activity against methicillin-resistant Staphylococcus aureus isolate 8 assessed as reduction of epigallocatechin gallate MIC after 24 hrs by checkerboard assay in presence of quercetin; type: functional; conditions: isolate 8, 24 h
# Staphylococcus aureus [25] = experiment: Antibacterial activity against methicillin-resistant Staphylococcus aureus NCTC 12493 assessed as log reduction of colony forming unit at 0.28 mM after 4 hrs; type: functional, organism-based
# Staphylococcus aureus [26] = experiment: Antibacterial activity against methicillin-sensitive Staphylococcus aureus ATCC 25923 at 0.56 mM after 24 hrs by time kill assay in presence of 0.42 mM of quercetin; type: functional, organism-based
# Staphylococcus aureus [27] = experiment: Antibacterial activity against methicillin-resistant Staphylococcus aureus isolate 7 after 24 hrs by checkerboard assay in presence of quercetin; type: functional
# Staphylococcus aureus [28] = experiment: Antibacterial activity against methicillin-resistant Staphylococcus aureus isolate 2 assessed as reduction of epigallocatechin gallate MIC after 24 hrs by checkerboard assay in presence of quercetin; type: functional; conditions: isolate 2, 24 h
# Staphylococcus aureus [29] = experiment: Antibacterial activity against methicillin-resistant Staphylococcus aureus isolate 2 after 24 hrs by checkerboard assay; type: functional; conditions: isolate 2, 24 h
# Staphylococcus aureus [30] = experiment: Antibacterial activity against methicillin-resistant Staphylococcus aureus isolate 8 after 24 hrs by checkerboard assay; type: functional; conditions: isolate 8, 24 h
# Staphylococcus aureus [31] = experiment: Antibacterial activity against methicillin-resistant Staphylococcus aureus NCTC 12493 after 24 hrs by checkerboard assay in presence of quercetin; type: functional
# Staphylococcus aureus [32] = experiment: Antibacterial activity against methicillin-resistant Staphylococcus aureus isolate 1 after 24 hrs by checkerboard assay; type: functional; conditions: isolate 1, 24 h
# Staphylococcus aureus [33] = experiment: Antibacterial activity against Staphylococcus aureus ATCC 25923 after 24 hrs by checkerboard assay; type: functional; conditions: ATCC 25923, 24 h
# Staphylococcus aureus [34] = experiment: Antibacterial activity against methicillin-resistant Staphylococcus aureus isolate 4 by disk diffusion assay; type: functional
# Staphylococcus aureus [35] = experiment: Antibacterial activity against methicillin-resistant Staphylococcus aureus isolate 4 after 24 hrs by checkerboard assay; type: functional; conditions: isolate 4, 24 h
# Staphylococcus aureus [36] = experiment: Antibacterial activity against methicillin-resistant Staphylococcus aureus isolate 9 after 24 hrs by checkerboard assay in presence of quercetin; type: functional
# Staphylococcus aureus [37] = experiment: Antibacterial activity against methicillin-resistant Staphylococcus aureus isolate 6 assessed as reduction of epigallocatechin gallate MIC after 24 hrs by checkerboard assay in presence of quercetin; type: functional; conditions: isolate 6, 24 h
# Staphylococcus aureus [38] = experiment: Antibacterial activity against methicillin-resistant Staphylococcus aureus isolate 9 after 24 hrs by checkerboard assay; type: functional; conditions: isolate 9, 24 h
# Staphylococcus aureus [39] = experiment: Antibacterial activity against vancomycin-intermediate resistant Staphylococcus aureus Mu50 assessed as log reduction of colony forming unit at 0.28 mM after 24 hrs; type: functional, organism-based
# Staphylococcus aureus [40] = experiment: Antibacterial activity against methicillin-resistant Staphylococcus aureus isolate 5 after 24 hrs by checkerboard assay; type: functional; conditions: isolate 5, 24 h
# Staphylococcus aureus [41] = experiment: Antibacterial activity against methicillin-resistant Staphylococcus aureus isolate 1 by disk diffusion assay; type: functional
# Staphylococcus aureus [42] = experiment: Antibacterial activity against vancomycin-intermediate resistant Staphylococcus aureus Mu50 after 24 hrs by checkerboard assay in presence of quercetin; type: functional
# Staphylococcus aureus [43] = experiment: Antibacterial activity against methicillin-resistant Staphylococcus aureus isolate 7 by disk diffusion assay; type: functional
# Staphylococcus aureus [44] = experiment: Antibacterial activity against methicillin-resistant Staphylococcus aureus isolate 6 by disk diffusion assay; type: functional
# Staphylococcus aureus [45] = experiment: Antibacterial activity against methicillin-resistant Staphylococcus aureus isolate 5 by disk diffusion assay; type: functional
# Staphylococcus aureus [46] = experiment: Antibacterial activity against vancomycin-intermediate resistant Staphylococcus aureus Mu50 after 24 hrs by checkerboard assay; type: functional; conditions: Mu50, 24 h
# Staphylococcus aureus [47] = experiment: Antibacterial activity against methicillin-resistant Staphylococcus aureus NCTC 12493 at 0.28 mM after 24 hrs by time kill assay; type: functional, organism-based
# Staphylococcus aureus [48] = experiment: Antibacterial activity against methicillin-resistant Staphylococcus aureus isolate 7 assessed as reduction of epigallocatechin gallate MIC after 24 hrs by checkerboard assay in presence of quercetin; type: functional; conditions: isolate 7, 24 h
# Staphylococcus aureus [49] = experiment: Antibacterial activity against methicillin-resistant Staphylococcus aureus isolate 8 by disk diffusion assay; type: functional
# Staphylococcus aureus [50] = experiment: Antibacterial activity against methicillin-resistant Staphylococcus aureus isolate 2 after 24 hrs by checkerboard assay in presence of quercetin; type: functional
# Staphylococcus aureus [51] = experiment: Antibacterial activity against vancomycin-intermediate resistant Staphylococcus aureus Mu50 assessed as reduction of epigallocatechin gallate MIC after 24 hrs by checkerboard assay in presence of quercetin; type: functional; conditions: Mu50, 24 h
# Staphylococcus aureus [52] = experiment: Antibacterial activity against methicillin-resistant Staphylococcus aureus NCTC 12493 assessed as log reduction of colony forming unit at 0.28 mM after 24 hrs; type: functional, organism-based
# Staphylococcus aureus [53] = experiment: Antibacterial activity against methicillin-resistant Staphylococcus aureus isolate 6 after 24 hrs by checkerboard assay in presence of quercetin; type: functional
# Staphylococcus aureus [54] = experiment: Antibacterial activity against methicillin-resistant Staphylococcus aureus isolate 8 after 24 hrs by checkerboard assay in presence of quercetin; type: functional
# Staphylococcus aureus [55] = experiment: Antibacterial activity against methicillin-resistant Staphylococcus aureus isolate 4 assessed as reduction of epigallocatechin gallate MIC after 24 hrs by checkerboard assay in presence of quercetin; type: functional; conditions: isolate 4, 24 h
# Staphylococcus aureus [56] = experiment: Antibacterial activity against Staphylococcus aureus ATCC 25923 after 24 hrs by checkerboard assay in presence of quercetin; type: functional
# Staphylococcus aureus [57] = experiment: Antibacterial activity against methicillin-resistant Staphylococcus aureus NCTC 12493 assessed as log reduction of colony forming unit at 0.28 mM after 2 hrs; type: functional, organism-based
# Staphylococcus aureus [58] = experiment: Antibacterial activity against methicillin-resistant Staphylococcus aureus NCTC 12493 after 24 hrs by time kill assay; type: functional, organism-based
# Staphylococcus aureus [59] = experiment: Antibacterial activity against methicillin-resistant Staphylococcus aureus isolate 9 assessed as reduction of epigallocatechin gallate MIC after 24 hrs by checkerboard assay in presence of quercetin; type: functional; conditions: isolate 9, 24 h
# Staphylococcus aureus [60] = experiment: Antibacterial activity against methicillin-resistant Staphylococcus aureus NCTC 12493 assessed as reduction of epigallocatechin gallate MIC after 24 hrs by checkerboard assay in presence of quercetin; type: functional; conditions: NCTC 12493, 24 h
# Staphylococcus aureus [61] = experiment: Antibacterial activity against methicillin-resistant Staphylococcus aureus isolate 4 after 24 hrs by checkerboard assay in presence of quercetin; type: functional
# Staphylococcus aureus [62] = experiment: Antibacterial activity against methicillin-resistant Staphylococcus aureus isolate 5 assessed as reduction of epigallocatechin gallate MIC after 24 hrs by checkerboard assay in presence of quercetin; type: functional; conditions: isolate 5, 24 h
structure (smiles),measurement,setting,value
O=C(O[C@@H]1Cc2c(O)cc(O)cc2O[C@@H]1c1cc(O)c(O)c(O)c1)c1cc(O)c(O)c(O)c1 [EPIGALOCATECHIN GALLATE],Activity,Staphylococcus aureus [1],Active
same,fractional inhibitory concentration index (FICI),Staphylococcus aureus [2],0.31
same,Activity,Staphylococcus aureus [3],Active
same,MIC,Staphylococcus aureus [4],20 µM
same,MIC,Staphylococcus aureus [5],70 µM
same,Activity,Staphylococcus aureus [6],Active
same,MIC,Staphylococcus aureus [7],70 µM
same,fractional inhibitory concentration index (FICI),Staphylococcus aureus [8],0.31
same,inhibition zone (IZ),Staphylococcus aureus [9],>=19 mm
same,Activity,Staphylococcus aureus [10],Active
same,MIC,Staphylococcus aureus [11],280 µM
same,MIC,Staphylococcus aureus [12],280 µM
same,Activity,Staphylococcus aureus [13],Active
same,MIC,Staphylococcus aureus [14],280 µM
same,Activity,Staphylococcus aureus [15],Active
same,Activity,Staphylococcus aureus [16],Active
same,Activity,Staphylococcus aureus [17],Active
same,MIC,Staphylococcus aureus [18],140 µM
same,fractional inhibitory concentration index (FICI),Staphylococcus aureus [19],0.28
same,inhibition zone (IZ),Staphylococcus aureus [20],>=19 mm
same,inhibition zone (IZ),Staphylococcus aureus [21],>=19 mm
same,Activity,Staphylococcus aureus [22],Active
same,Activity,Staphylococcus aureus [23],Active
same,MIC,Staphylococcus aureus [24],70 µM
same,Activity,Staphylococcus aureus [25],Active
same,Activity,Staphylococcus aureus [26],Active
same,fractional inhibitory concentration index (FICI),Staphylococcus aureus [27],0.31
same,MIC,Staphylococcus aureus [28],40 µM
same,MIC,Staphylococcus aureus [29],280 µM
same,MIC,Staphylococcus aureus [30],280 µM
same,fractional inhibitory concentration index (FICI),Staphylococcus aureus [31],0.06
same,MIC,Staphylococcus aureus [32],280 µM
same,MIC,Staphylococcus aureus [33],560 µM
same,inhibition zone (IZ),Staphylococcus aureus [34],>=19 mm
same,MIC,Staphylococcus aureus [35],280 µM
same,fractional inhibitory concentration index (FICI),Staphylococcus aureus [36],0.28
same,MIC,Staphylococcus aureus [37],70 µM
same,MIC,Staphylococcus aureus [38],280 µM
same,Activity,Staphylococcus aureus [39],Active
same,MIC,Staphylococcus aureus [40],280 µM
same,inhibition zone (IZ),Staphylococcus aureus [41],8 mm
same,fractional inhibitory concentration index (FICI),Staphylococcus aureus [42],0.09
same,inhibition zone (IZ),Staphylococcus aureus [43],>=19 mm
same,inhibition zone (IZ),Staphylococcus aureus [44],>=19 mm
same,inhibition zone (IZ),Staphylococcus aureus [45],>=19 mm
same,MIC,Staphylococcus aureus [46],280 µM
same,Activity,Staphylococcus aureus [47],Active
same,MIC,Staphylococcus aureus [48],70 µM
same,inhibition zone (IZ),Staphylococcus aureus [49],>=19 mm
same,fractional inhibitory concentration index (FICI),Staphylococcus aureus [50],0.2
same,MIC,Staphylococcus aureus [51],20 µM
same,Activity,Staphylococcus aureus [52],Active
same,fractional inhibitory concentration index (FICI),Staphylococcus aureus [53],0.31
same,fractional inhibitory concentration index (FICI),Staphylococcus aureus [54],0.31
same,MIC,Staphylococcus aureus [55],70 µM
same,fractional inhibitory concentration index (FICI),Staphylococcus aureus [56],0.07
same,Activity,Staphylococcus aureus [57],Active
same,Activity,Staphylococcus aureus [58],Active
same,MIC,Staphylococcus aureus [59],70 µM
same,MIC,Staphylococcus aureus [60],4 µM
same,fractional inhibitory concentration index (FICI),Staphylococcus aureus [61],0.28
same,MIC,Staphylococcus aureus [62],70 µM
